The RepoRT retention time repository (doi:10.1016/j.foodchem.2015.11.070)

Test: Thermo Scientific Hypersil GOLD aQ, 100 × 2.1 mm, 1.9 µm, 30 °C, 0.3 mL/min, estimated dead time 0.73 min; A: water + 0.01% formic acid + 4 mM ammonium formate; B: methanol + 0.01% formic acid + 4 mM ammonium formate; gradient (min/%B) 0/5 1/5 8/100 12/100
Settings: stereoisomer not certain

Structure (SMILES)	LC retention time
COP(N)(=O)SC (stereo not drawn)	1.58 min
CC1=NNC(=O)N(N=Cc2cccnc2)C1	1.58 min
CCOC(=O)C(SP(=S)(OC)OC)c1ccccc1 (stereo not drawn)	10.1 min
CCc1ccc(C(=O)NN(C(=O)c2cc(C)cc(C)c2)C(C)(C)C)cc1	9.99 min
CNC(=O)Oc1cccc(N=CN(C)C)c1	7.91 min
CNC(=O)C=C(C)OP(=O)(OC)OC	6.58 min
CCOP(=S)(OCC)SCSC(C)(C)C	7.2 min
COc1cc2c(c3oc(=O)c4c(c13)CCC4=O)C1CCOC1O2 (stereo not drawn)	8.26 min
COc1cc2c(c3oc(=O)c4c(c13)CCOC4=O)C1CCOC1O2 (stereo not drawn)	7.8 min
CC(C)(C)C(O)C(Oc1ccc(-c2ccccc2)cc1)n1cncn1 (stereo not drawn)	10.3 min
CCOP(=S)(OCC)OP(=S)(OCC)OCC	10.1 min
CC(=O)OCC12CC(OC(=O)CC(C)C)C(C)=CC1OC1C(O)C(OC(C)=O)C2(C)C12CO2 (stereo not drawn)	9.3 min
CCNc1nc(NC(C)(C)C)nc(OC)n1	8.88 min
CC(C)(C)c1ccc(CCOc2ncnc3ccccc23)cc1	11.8 min
CCS(=O)Cc1ccccc1OC(=O)NC (stereo not drawn)	7.09 min
COc1nn(CSP(=S)(OC)OC)c(=O)s1	9.26 min
CCOC1Oc2ccc(OS(C)(=O)=O)cc2C1(C)C (stereo not drawn)	9.42 min
COC(=O)Nc1nc2ccccc2[nH]1	6.3 min
C=C(C)C1Cc2c(ccc3c2OC2COc4cc(OC)c(OC)cc4C2C3=O)O1 (stereo not drawn)	10.3 min
CCOP(=S)(OCC)SCSCC	8.44 min
CC(C)C1(C)N=C(c2ncccc2C(=O)O)NC1=O (stereo not drawn)	6.79 min

Structure (SMILES)	LC retention time
Cc1cc(C2CC2)nc(Nc2ccccc2)n1	10.3 min
CCC(C)C1OC2(C=CC1C)CC1CC(CC=C(C)C(OC3CC(OC)C(OC4CC(OC)C(NC)C(C)O4)C(C)O3)C(C)C=CC=C3COC4C(O)C(C)=CC(C(=O)O1)C34O)O2 (stereo not drawn)	11.9 min
CC=C(C)C(=O)OC1CC(OC(C)=O)C2(C(=O)OC)COC3C2C12COC(O)(C(=O)OC)C2C(C)(C12OC1(C)C1CC2OC2OC=CC21O)C3O (stereo not drawn)	8.67 min
CCSC(=O)N(CC)C1CCCCC1	10.6 min
CC(C)c1ccc(NC(=O)N(C)C)cc1	9.15 min
COC(=O)C(C)N(C(=O)Cc1ccccc1)c1c(C)cccc1C (stereo not drawn)	10.2 min
CCOP(=S)(OCC)SCCSCC	10.4 min
CCSCc1ccccc1OC(=O)NC	8.76 min
CCOC(=O)CC(SP(=S)(OC)OC)C(=O)OCC (stereo not drawn)	9.59 min
Cc1ccc(OP(=O)(Oc2ccc(C)cc2)Oc2ccc(C)cc2)cc1	11.9 min
CCOP(=S)(Oc1ccc([N+](=O)[O-])cc1)c1ccccc1 (stereo not drawn)	9.71 min
COC(=O)C=C(C)OP(=O)(OC)OC	7.66 min
CCS(=O)CCSP(=O)(OC)OC (stereo not drawn)	6.04 min
CCCOC(=O)NCCCN(C)C	5.17 min
CCOC(=O)NCCOc1ccc(Oc2ccccc2)cc1	9.38 min
CCOP(=O)(NC(C)C)Oc1ccc(SC)c(C)c1 (stereo not drawn)	9.99 min
Cc1ccc(C(C)NC(=O)C(NC(=O)OC(C)C)C(C)C)cc1 (stereo not drawn)	9.73 min
c1ccc2[nH]c(-c3cscn3)nc2c1	6.96 min
CCCCC(C)C(OC(=O)CC(CC(=O)O)C(=O)O)C(CC(C)CCCCCCC(O)CC(O)C(C)N)OC(=O)CC(CC(=O)O)C(=O)O (stereo not drawn)	7.46 min
COC(=O)C(C)N(C(=O)c1ccco1)c1c(C)cccc1C (stereo not drawn)	9.38 min
CC1CCCC(=O)CCCC=Cc2cc(O)cc(O)c2C(=O)O1 (stereo not drawn)	9.87 min

Structure (SMILES)	LC retention time
Cc1nc(N(C)C)nc(OC(=O)N(C)C)c1C	7.91 min
CNC(=O)Oc1cc(C)c(S(C)=O)c(C)c1 (stereo not drawn)	7.09 min
CCSCCSP(=S)(OC)OC	8.94 min
CCCCN(CCCC)SN(C)C(=O)Oc1cccc2c1OC(C)(C)C2	11.1 min
CCCSP(=O)(OCC)SCCC	9.93 min
CNC(=O)Oc1ccccc1OC(C)C	8.36 min
COP(=S)(OC)Oc1ccc(SC)c(C)c1	10.2 min
CNC(=O)ON=CC(C)(C)S(C)=O (stereo not drawn)	3.06 min
CCOc1ccc(NC(=O)OC(C)C)cc1OCC	9.37 min
CCCC(=NOCC)C1=C(O)CC(CC(C)SCC)CC1=O (stereo not drawn)	10.7 min
CCOP(=S)(OCC)SCSP(=S)(OCC)OCC	10.8 min
CCOP(=O)(SC(C)CC)SC(C)CC (stereo not drawn)	10.5 min
CC(C)=CC1C(C(=O)OCN2C(=O)C3=C(CCCC3)C2=O)C1(C)C (stereo not drawn)	10.7 min
CCOP(=S)(OCC)SCCS(=O)(=O)CC	8.89 min
CCOP(=O)(SC(C)CC)N1CCSC1=O (stereo not drawn)	8.81 min
CCOP(=S)(OCC)Oc1cnc2ccccc2n1	10.2 min
COc1cc(OC)nc(NC(=O)NS(=O)(=O)c2ncccc2C(=O)N(C)C)n1	8.01 min
COP(=O)(OC)OC(C)=CC(=O)N(C)C	6.63 min
CNC(=O)Oc1cccc2ccccc12	8.61 min
CNC(=O)ON=C(C)C(C)S(C)=O (stereo not drawn)	3.06 min
CC(C)N1C(=O)N(c2ccccc2)CSC1=NC(C)(C)C	10.7 min

Structure (SMILES)	LC retention time
COP(=S)(OC)SCn1nnc2ccccc2c1=O	9.38 min
COC(=O)c1sccc1S(=O)(=O)NC(=O)Nc1nc(C)nc(OC)n1	8.32 min
CNC(=O)Oc1cc(C)c(S(C)(=O)=O)c(C)c1	6.96 min
CNc1nc(NC(C)C)nc(SC)n1	8.62 min
CCNc1nc(NC(C)C)nc(SC)n1	9.18 min
CNC(=O)ON=C(SC)C(=O)N(C)C	5.75 min
CC(Cc1ccc(C(C)(C)C)cc1)CN1CC(C)OC(C)C1 (stereo not drawn)	9.38 min
O=c1[nH]c2c(c(=O)n1C1CCCCC1)CCC2	9.11 min
CCCCOCCOCCOCc1cc2c(cc1CCC)OCO2	10.8 min
CCCSP(=S)(OCC)Oc1ccc(SC)cc1 (stereo not drawn)	11 min
CCCCOC(=O)N(C)SN(C)C(=O)Oc1cccc2c1OC(C)(C)C2	10.6 min
CNC(=O)C(C)SCCSP(=O)(OC)OC (stereo not drawn)	7.11 min
CCOC(=O)c1cn2nc(OP(=S)(OCC)OCC)cc2nc1C	10.4 min
CNC(=O)ON=CC(C)(C)SC	7.89 min
CCNC(=O)NC(=O)C(C#N)=NOC	8.63 min
CCOP(=S)(NC(C)C)Oc1ccccc1C(=O)OC(C)C (stereo not drawn)	7.91 min
Cc1nn(C)c(Oc2ccccc2)c1C=NOCc1ccc(C(=O)OC(C)(C)C)cc1	11.2 min
COP(=S)(OC)Oc1ccc([N+](=O)[O-])cc1	9.96 min
CNC(=O)ON=C(CSC)C(C)(C)C	8.21 min
CN(C)NC(=O)CCC(=O)O	1.58 min
